Tests used:
Experiment in all cases: UV-Vis absorbance of bound flavin, dark recovery after photosaturation
Assay type in all cases: binding
[1] = target: T1, AsLOV2 (A. sativa phot1 LOV2) (Avena sativa, UniProt O49003, C450V/F494C); conditions: 22 °C; relocated active-site cysteine (C494); covalent photoadduct in the light, <10% bleaching; adduct decay time, not an affinity
T1 construct: gene NPH1-1; LOV2 domain with flanking helices, residues 404-560; His6-Gβ1 tag removed by TEV; GEF left on the amino terminus and G on the carboxy terminus; expressed in E. coli BL21(DE3)
T1 sequence (O49003 entry or part of it C450V/F494C): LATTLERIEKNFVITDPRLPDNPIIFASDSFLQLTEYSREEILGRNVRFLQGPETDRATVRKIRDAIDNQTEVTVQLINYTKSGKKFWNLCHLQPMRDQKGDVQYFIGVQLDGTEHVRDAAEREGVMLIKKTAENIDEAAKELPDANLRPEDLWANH
Text: (§1) UV-Vis absorbance of bound flavin, dark recovery after photosaturation on AsLOV2 (A. sativa phot1 LOV2)

[2] = target: T2, AsLOV2 (A. sativa phot1 LOV2) (Avena sativa, UniProt O49003, F494C); conditions: 22 °C; bound chromophore; covalent photoadduct with C450 in the light; adduct decay time, not an affinity
T2 construct: gene NPH1-1; LOV2 domain with flanking helices, residues 404-560; His6-Gβ1 tag removed by TEV; GEF left on the amino terminus and G on the carboxy terminus; expressed in E. coli BL21(DE3)
T2 sequence (O49003 entry or part of it F494C): as the sequence (O49003 entry or part of it C450V/F494C) above, with V47C counted along it
Text: as §1

[3] = target: T3, AsLOV2 (A. sativa phot1 LOV2) (Avena sativa, UniProt O49003, N414A); conditions: 22 °C; bound chromophore; covalent photoadduct with C450 in the light; adduct decay time, not an affinity
T3 construct: gene NPH1-1; LOV2 domain with flanking helices, residues 404-560; His6-Gβ1 tag removed by TEV; GEF left on the amino terminus and G on the carboxy terminus; expressed in E. coli BL21(DE3)
T3 sequence (O49003 entry or part of it N414A): as the sequence (O49003 entry or part of it C450V/F494C) above, with N11A, V47C, C91F counted along it
Text: as §1

[4] = target: T4, AsLOV2 (A. sativa phot1 LOV2) (Avena sativa, UniProt O49003, N414D); conditions: 22 °C; bound chromophore; covalent photoadduct with C450 in the light; adduct decay time, not an affinity
T4 construct: gene NPH1-1; LOV2 domain with flanking helices, residues 404-560; His6-Gβ1 tag removed by TEV; GEF left on the amino terminus and G on the carboxy terminus; expressed in E. coli BL21(DE3)
T4 sequence (O49003 entry or part of it N414D): as the sequence (O49003 entry or part of it C450V/F494C) above, with N11D, V47C, C91F counted along it
Text: as §1

[5] = target: T5, AsLOV2 (A. sativa phot1 LOV2) (Avena sativa, UniProt O49003, N414G); conditions: 22 °C; bound chromophore; covalent photoadduct with C450 in the light; adduct decay time, not an affinity
T5 construct: gene NPH1-1; LOV2 domain with flanking helices, residues 404-560; His6-Gβ1 tag removed by TEV; GEF left on the amino terminus and G on the carboxy terminus; expressed in E. coli BL21(DE3)
T5 sequence (O49003 entry or part of it N414G): as the sequence (O49003 entry or part of it C450V/F494C) above, with N11G, V47C, C91F counted along it
Text: as §1

[6] = target: T6, AsLOV2 (A. sativa phot1 LOV2) (Avena sativa, UniProt O49003, N414L); conditions: 22 °C; bound chromophore; covalent photoadduct with C450 in the light; adduct decay time, not an affinity
T6 construct: gene NPH1-1; LOV2 domain with flanking helices, residues 404-560; His6-Gβ1 tag removed by TEV; GEF left on the amino terminus and G on the carboxy terminus; expressed in E. coli BL21(DE3)
T6 sequence (O49003 entry or part of it N414L): as the sequence (O49003 entry or part of it C450V/F494C) above, with N11L, V47C, C91F counted along it
Text: as §1

[7] = target: T7, AsLOV2 (A. sativa phot1 LOV2) (Avena sativa, UniProt O49003, N414Q); conditions: 22 °C; bound chromophore; covalent photoadduct with C450 in the light; adduct decay time, not an affinity
T7 construct: gene NPH1-1; LOV2 domain with flanking helices, residues 404-560; His6-Gβ1 tag removed by TEV; GEF left on the amino terminus and G on the carboxy terminus; expressed in E. coli BL21(DE3)
T7 sequence (O49003 entry or part of it N414Q): as the sequence (O49003 entry or part of it C450V/F494C) above, with N11Q, V47C, C91F counted along it
Text: as §1

[8] = target: T8, AsLOV2 (A. sativa phot1 LOV2) (Avena sativa, UniProt O49003, Q513D); conditions: 22 °C; bound chromophore; covalent photoadduct with C450 in the light; adduct decay time, not an affinity
T8 construct: gene NPH1-1; LOV2 domain with flanking helices, residues 404-560; His6-Gβ1 tag removed by TEV; GEF left on the amino terminus and G on the carboxy terminus; expressed in E. coli BL21(DE3)
T8 sequence (O49003 entry or part of it Q513D): as the sequence (O49003 entry or part of it C450V/F494C) above, with V47C, C91F, Q110D counted along it
Text: as §1

[9] = target: T9, AsLOV2 (A. sativa phot1 LOV2) (Avena sativa, UniProt O49003, Q513L); conditions: 22 °C; bound chromophore; covalent photoadduct with C450 in the light; adduct decay time, not an affinity
T9 construct: gene NPH1-1; LOV2 domain with flanking helices, residues 404-560; His6-Gβ1 tag removed by TEV; GEF left on the amino terminus and G on the carboxy terminus; expressed in E. coli BL21(DE3)
T9 sequence (O49003 entry or part of it Q513L): as the sequence (O49003 entry or part of it C450V/F494C) above, with V47C, C91F, Q110L counted along it
Text: as §1

[10] = target: T10, AsLOV2 (A. sativa phot1 LOV2) (Avena sativa, UniProt O49003); conditions: 22 °C; bound chromophore; covalent cysteinyl-C4a photoadduct with C450 in the light, noncovalent in the dark; adduct decay time, not an affinity; Table 1 gives 80 s from earlier work
T10 construct: gene NPH1-1; LOV2 domain with flanking helices, residues 404-560; His6-Gβ1 tag removed by TEV; GEF left on the amino terminus and G on the carboxy terminus; expressed in E. coli BL21(DE3)
T10 sequence (O49003 entry or part of it): as the sequence (O49003 entry or part of it C450V/F494C) above, with V47C, C91F counted along it

τFMN [1]: 69 s | τFMN [2]: 282 s | τFMN [3]: 1427 s | τFMN [4]: 69 s | τFMN [5]: 615 s | τFMN [6]: 1847 s | τFMN [7]: 280 s | τFMN [8]: 5 s | τFMN [9]: 1793 s | τFMN [10]: 81 ± 2 s
Compound: Cc1cc2nc3c(=O)[nH]c(=O)nc-3n(C[C@H](O)[C@H](O)[C@H](O)COP(=O)(O)O)c2cc1C [FMN, flavin mononucleotide]
